Results as given in publication PMC10056986 (Pharmaceuticals, 2023).
Like-named read-outs stand apart in the source and are kept apart here.

What was measured:
[1] = in vitro; conditions: human
[2] = test system: Influenza virus A/California/2/2014 (H3N2); experiment: microbe, parasite or virus in culture; assay type: cell-based; conditions: H3N2, MDCK, read-out: EC50 (mean ± SD)
[3] = target: Alpha2a (Homo sapiens, UniProt P08913); experiment: cell-based
[4] = target: ABL1 (Homo sapiens, UniProt P00519); experiment: biochemical
[5] = target: T1, hERG potassium channel (Homo sapiens, UniProt Q12809); experiment: cell-based
[6] = target: H2 (Homo sapiens, UniProt P25021); experiment: cell-based
[7] = target: Beta2 (Homo sapiens, UniProt P07550); experiment: cell-based
[8] = target: LCK (Homo sapiens, UniProt P06239); experiment: biochemical
[9] = test system: Influenza virus A/WS/33 (H1N1); experiment: microbe, parasite or virus in culture; assay type: cell-based; conditions: H1N1, MDCK, read-out: EC50 (mean ± SD)
[10] = target: Alpha1a (Homo sapiens, UniProt P35348); experiment: cell-based
[11] = test system: influenza A virus WSN/33 (H1N1); parameters: species or system BALB/c mice; conditions: mouse, in vivo
[12] = test system: AD2; assay type: cell-based, human
[13] = test system: Influenza virus A/Hong Kong/8/68 (H3N2); experiment: microbe, parasite or virus in culture; assay type: cell-based; conditions: unidentified influenza virus, H3N2, MDCK, read-out: EC50 (mean ± SD)
[14] = target: H1 (Homo sapiens, UniProt P35367); experiment: cell-based
[15] = target: T2, CCKa (Homo sapiens, UniProt P32238); experiment: cell-based
T2 sequence (P32238 1-428): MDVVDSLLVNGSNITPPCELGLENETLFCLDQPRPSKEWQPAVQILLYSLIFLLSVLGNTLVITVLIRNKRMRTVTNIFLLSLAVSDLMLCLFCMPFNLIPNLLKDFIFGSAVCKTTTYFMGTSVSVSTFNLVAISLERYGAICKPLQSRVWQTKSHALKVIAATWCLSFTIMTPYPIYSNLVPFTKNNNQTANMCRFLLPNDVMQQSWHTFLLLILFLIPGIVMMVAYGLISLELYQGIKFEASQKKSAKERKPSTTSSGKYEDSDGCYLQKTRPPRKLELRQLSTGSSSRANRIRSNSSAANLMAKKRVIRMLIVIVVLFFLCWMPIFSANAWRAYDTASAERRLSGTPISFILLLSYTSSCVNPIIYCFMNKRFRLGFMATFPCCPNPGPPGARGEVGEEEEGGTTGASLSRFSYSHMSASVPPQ

[16] = test system: H1N1 and H3N2 influenza A virus strains; experiment: in vitro; conditions: dog
[17] = target: SRC (Homo sapiens, UniProt P12931); experiment: biochemical
[18] = target: Aurora A (Homo sapiens, UniProt O14965); experiment: biochemical
[19] = target: MAPKAPK2 (Homo sapiens, UniProt P49137); experiment: biochemical
[20] = test system: HRV 1B; experiment: microbe, parasite or virus in culture; assay type: cell-based; conditions: Human rhinovirus sp., H1-HeLa, read-out: EC50 for Virus
[21] = in vivo; conditions: both, SD, rat; for AUC(0-t): AUC0-last
[22] = test system: RSV long; experiment: microbe, parasite or virus in culture; assay type: cell-based, respiratory syncytial virus; conditions: human respiratory syncytial virus, HEp-2, read-out: EC50 for Virus
[23] = target: MINK (Homo sapiens, UniProt Q8N4C8); experiment: biochemical
[24] = target: T1, hERG potassium channel; experiment: in vitro
[25] = target: CB1 (Homo sapiens, UniProt P21554); experiment: cell-based
[26] = test system: Influenza virus B/Lee/40; experiment: microbe, parasite or virus in culture; assay type: cell-based; conditions: MDCK, read-out: EC50 (mean ± SD)
[27] = target: D2 (Homo sapiens, UniProt P14416); experiment: cell-based
[28] = test system: H1N1 and H3N2 influenza A virus strains; experiment: microbe, parasite or virus in culture; conditions: MDCK
[29] = target: GSK3 beta (Homo sapiens, UniProt P49841); experiment: biochemical
[30] = in vitro; conditions: human; remark: listed apart in the source
[31] = target: CHK1 (Homo sapiens, UniProt O14757); experiment: biochemical
[32] = test system: A/PR/8/34 (H1N1); parameters: species or system BALB/c mice; conditions: mouse, in vivo
[33] = target: KDR (Homo sapiens, UniProt P35968); experiment: biochemical
[34] = 10,000 nM, read-out: Inhibition at Maximum Concentration (%)

H1, sequence (P35367 whole entry): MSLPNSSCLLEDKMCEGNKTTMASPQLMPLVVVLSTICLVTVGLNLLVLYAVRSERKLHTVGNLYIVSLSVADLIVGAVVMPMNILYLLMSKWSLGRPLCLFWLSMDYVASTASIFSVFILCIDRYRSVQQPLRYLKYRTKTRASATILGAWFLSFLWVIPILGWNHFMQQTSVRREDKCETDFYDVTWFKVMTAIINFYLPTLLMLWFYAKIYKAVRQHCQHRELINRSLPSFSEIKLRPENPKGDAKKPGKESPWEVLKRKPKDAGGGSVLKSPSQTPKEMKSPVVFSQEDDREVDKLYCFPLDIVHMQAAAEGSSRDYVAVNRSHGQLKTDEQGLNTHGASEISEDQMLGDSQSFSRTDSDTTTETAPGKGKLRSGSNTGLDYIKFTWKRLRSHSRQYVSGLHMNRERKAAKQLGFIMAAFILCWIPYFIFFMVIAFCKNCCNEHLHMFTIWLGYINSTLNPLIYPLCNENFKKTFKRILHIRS
CB1, sequence (P21554 whole entry): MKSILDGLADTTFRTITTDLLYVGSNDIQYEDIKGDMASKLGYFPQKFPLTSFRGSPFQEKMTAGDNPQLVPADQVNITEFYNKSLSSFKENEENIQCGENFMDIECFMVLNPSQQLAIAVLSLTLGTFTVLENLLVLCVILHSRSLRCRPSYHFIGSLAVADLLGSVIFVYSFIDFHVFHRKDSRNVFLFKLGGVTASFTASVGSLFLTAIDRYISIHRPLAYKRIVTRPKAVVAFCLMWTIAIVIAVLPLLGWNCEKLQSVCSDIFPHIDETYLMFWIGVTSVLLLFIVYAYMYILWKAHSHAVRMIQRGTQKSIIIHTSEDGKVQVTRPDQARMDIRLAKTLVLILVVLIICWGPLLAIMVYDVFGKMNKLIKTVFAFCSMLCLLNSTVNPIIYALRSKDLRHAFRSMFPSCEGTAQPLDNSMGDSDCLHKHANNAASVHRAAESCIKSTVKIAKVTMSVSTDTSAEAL
T1 sequence (Q12809 whole entry): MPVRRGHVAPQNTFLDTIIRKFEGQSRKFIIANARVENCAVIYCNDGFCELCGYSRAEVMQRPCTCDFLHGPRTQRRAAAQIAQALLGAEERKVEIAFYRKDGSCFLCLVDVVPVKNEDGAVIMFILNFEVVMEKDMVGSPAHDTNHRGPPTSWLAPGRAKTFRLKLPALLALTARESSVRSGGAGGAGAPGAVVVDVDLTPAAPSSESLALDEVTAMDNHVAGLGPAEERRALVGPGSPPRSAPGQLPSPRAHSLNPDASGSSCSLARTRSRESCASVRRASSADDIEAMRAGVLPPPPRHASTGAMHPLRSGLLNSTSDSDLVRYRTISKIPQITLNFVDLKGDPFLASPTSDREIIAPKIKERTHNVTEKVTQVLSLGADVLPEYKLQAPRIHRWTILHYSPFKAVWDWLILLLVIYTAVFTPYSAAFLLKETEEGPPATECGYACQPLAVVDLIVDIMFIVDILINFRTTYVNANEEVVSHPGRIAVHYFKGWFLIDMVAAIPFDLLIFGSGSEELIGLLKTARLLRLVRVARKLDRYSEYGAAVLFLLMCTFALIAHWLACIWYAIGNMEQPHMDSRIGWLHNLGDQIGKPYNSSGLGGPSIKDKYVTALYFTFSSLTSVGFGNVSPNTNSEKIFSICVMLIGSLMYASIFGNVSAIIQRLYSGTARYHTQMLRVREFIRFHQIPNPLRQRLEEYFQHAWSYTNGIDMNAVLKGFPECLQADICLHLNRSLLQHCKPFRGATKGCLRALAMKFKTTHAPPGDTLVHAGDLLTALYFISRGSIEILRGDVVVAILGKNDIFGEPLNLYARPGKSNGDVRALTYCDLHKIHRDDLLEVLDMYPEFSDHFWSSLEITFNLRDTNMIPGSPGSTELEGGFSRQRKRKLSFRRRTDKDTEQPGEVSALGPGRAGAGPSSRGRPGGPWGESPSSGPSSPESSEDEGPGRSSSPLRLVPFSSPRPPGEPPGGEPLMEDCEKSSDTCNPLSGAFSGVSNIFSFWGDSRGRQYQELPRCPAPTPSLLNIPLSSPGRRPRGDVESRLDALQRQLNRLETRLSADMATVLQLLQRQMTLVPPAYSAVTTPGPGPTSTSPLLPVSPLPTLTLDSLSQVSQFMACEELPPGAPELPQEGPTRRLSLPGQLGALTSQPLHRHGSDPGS
H2, sequence (P25021 whole entry): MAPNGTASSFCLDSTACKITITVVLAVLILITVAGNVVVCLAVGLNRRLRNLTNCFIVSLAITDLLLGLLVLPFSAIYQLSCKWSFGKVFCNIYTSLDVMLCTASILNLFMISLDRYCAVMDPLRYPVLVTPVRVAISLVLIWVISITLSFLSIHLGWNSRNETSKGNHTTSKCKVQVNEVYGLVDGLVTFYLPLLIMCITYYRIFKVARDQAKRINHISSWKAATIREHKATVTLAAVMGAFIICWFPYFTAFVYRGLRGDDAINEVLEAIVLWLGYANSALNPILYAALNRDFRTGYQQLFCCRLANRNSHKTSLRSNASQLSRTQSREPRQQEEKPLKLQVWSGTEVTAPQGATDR
D2, sequence (P14416 whole entry): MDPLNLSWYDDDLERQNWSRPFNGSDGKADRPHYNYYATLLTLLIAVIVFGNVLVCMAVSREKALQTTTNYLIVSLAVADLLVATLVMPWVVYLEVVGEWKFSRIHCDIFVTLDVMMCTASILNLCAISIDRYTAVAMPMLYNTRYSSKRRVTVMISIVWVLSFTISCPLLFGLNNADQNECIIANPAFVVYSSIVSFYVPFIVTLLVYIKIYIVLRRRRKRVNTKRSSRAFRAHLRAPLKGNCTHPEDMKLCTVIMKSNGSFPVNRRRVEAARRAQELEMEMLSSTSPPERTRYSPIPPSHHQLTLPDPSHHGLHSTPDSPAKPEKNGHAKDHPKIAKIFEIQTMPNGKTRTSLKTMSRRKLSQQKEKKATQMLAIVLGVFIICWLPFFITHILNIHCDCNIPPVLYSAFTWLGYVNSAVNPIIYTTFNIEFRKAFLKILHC
Alpha2a, sequence (P08913 whole entry): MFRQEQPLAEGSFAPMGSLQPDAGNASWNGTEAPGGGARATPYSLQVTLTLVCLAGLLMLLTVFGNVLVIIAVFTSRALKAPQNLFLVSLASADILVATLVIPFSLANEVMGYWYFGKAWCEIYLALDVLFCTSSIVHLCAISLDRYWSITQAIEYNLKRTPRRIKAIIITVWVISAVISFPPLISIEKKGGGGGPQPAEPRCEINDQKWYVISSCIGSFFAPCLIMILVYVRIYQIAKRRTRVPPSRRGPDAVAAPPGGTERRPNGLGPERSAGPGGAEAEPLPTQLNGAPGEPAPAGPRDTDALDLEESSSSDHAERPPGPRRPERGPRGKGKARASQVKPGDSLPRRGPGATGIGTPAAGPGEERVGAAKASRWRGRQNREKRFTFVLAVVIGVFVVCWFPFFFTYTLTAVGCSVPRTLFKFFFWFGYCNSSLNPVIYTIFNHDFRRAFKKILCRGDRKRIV
Beta2, sequence (P07550 whole entry): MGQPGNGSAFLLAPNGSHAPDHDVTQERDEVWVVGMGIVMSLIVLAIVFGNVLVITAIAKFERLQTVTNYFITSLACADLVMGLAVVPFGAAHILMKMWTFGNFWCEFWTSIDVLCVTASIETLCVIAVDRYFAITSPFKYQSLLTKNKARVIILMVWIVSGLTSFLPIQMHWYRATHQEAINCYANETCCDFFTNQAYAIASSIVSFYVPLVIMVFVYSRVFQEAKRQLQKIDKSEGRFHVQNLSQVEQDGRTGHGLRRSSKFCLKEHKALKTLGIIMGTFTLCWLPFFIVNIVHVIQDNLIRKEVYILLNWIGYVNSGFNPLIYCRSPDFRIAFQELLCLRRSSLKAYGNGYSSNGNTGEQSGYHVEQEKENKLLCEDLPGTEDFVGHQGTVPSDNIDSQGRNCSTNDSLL
Alpha1a, sequence (P35348 whole entry): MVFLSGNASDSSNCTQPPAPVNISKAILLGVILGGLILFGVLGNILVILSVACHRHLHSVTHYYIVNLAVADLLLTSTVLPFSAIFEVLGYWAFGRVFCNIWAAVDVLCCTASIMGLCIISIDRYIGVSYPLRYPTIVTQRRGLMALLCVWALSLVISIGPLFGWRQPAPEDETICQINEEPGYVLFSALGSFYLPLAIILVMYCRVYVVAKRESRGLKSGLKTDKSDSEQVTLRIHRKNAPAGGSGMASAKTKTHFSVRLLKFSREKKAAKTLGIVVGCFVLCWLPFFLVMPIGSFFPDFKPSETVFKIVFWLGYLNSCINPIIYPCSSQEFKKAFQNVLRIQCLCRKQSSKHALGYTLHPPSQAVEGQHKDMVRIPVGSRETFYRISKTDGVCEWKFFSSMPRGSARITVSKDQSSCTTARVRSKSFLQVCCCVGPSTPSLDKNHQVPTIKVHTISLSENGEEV
LCK, sequence (P06239 whole entry): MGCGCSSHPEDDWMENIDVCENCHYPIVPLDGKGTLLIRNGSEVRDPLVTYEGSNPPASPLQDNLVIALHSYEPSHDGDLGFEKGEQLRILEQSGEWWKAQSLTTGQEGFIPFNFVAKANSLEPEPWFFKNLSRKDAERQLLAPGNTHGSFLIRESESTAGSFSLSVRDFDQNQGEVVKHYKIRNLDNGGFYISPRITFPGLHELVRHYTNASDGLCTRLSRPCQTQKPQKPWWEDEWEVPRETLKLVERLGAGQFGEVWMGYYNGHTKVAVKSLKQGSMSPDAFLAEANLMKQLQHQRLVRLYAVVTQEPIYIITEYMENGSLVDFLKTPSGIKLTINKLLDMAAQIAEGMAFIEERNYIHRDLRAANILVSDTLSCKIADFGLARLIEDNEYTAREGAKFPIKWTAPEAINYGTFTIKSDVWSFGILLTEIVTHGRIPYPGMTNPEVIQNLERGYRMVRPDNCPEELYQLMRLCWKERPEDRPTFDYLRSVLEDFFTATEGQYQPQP

In the case of `O=C(O)[C@H]1C2CCC(CC2)[C@@H]1Nc1nc(-c2n[nH]c3ncc(F)cc23)nc(C2CC2)c1F` [ZSP1273], the CC50 [1] is reported as > 10 µM, the EC50 [2] is reported as 0.01 ± 0.0002 nM and the IC50 [3] is reported as > 10 µM. For the same compound, the inhibition at 10 µM [3, 34] was -9.3%, the IC50 [4] was > 10 µM and the IC50 [5] was > 40 µM. The EC50 [6] was > 12 µM, the “Activity at Maximum Concentration (%)” value ([6]; 12,000 nM) was −3.46% and the IC50 [7] was > 10 µM. The inhibition at 10 µM [7, 34] was -33.2%, the IC50 [8] was > 10 µM and the EC50 [9] was 0.032 ± 0.01 nM. For the same compound, the EC50 [10] was > 12 µM, the “Activity at Maximum Concentration (%)” value ([10]; 12,000 nM) was −2.93% and the “body weight of mice” value [11] was “did not significantly reduce the body weight”. The “survival rate vs vehicle” value [11] was “could improve the survival rate”, the “time of death relative to vehicle group” value [11] was “died later than those in the vehicle group” and the EC50 [12] was > 12 µM. For the same compound, the “Activity at Maximum Concentration (%)” value ([12]; 12,000 nM) was 3.38%, the EC50 [13] was 0.019 ± 0.01 nM and the EC50 [14] was > 12 µM. The “Activity at Maximum Concentration (%)” value ([14]; 12,000 nM) was 0.73%, the IC50 [15] was > 10 µM and the inhibition at 10 µM [15, 34] was -17.6%. The selectivity ratio [16] was > 25000, the IC50 [17] was > 10 µM and the IC50 [18] was 0.527 µM. The IC50 [19] was > 10 µM, the EC50 [20] was 7.88 µM and the Vd ([21]; iv, 3 mg/kg) was 0.508 ± 0.241 L/kg. For the same compound, the clearance ([21]; iv, 3 mg/kg) was 12.9 ± 2.23 mL/min/kg, the half-life ([21]; iv, 3 mg/kg) was 2.11 ± 1.46 h and the AUC(0-t) ([21]; iv, 3 mg/kg) was 3950 ± 773 ng·h/mL. For the same compound, the bioavailability ([21]; po, 3 mg/kg) was 22.8%, the AUC(0-t) ([21]; po, 3 mg/kg) was 899 ± 213 ng·h/mL and the Cmax ([21]; po, 3 mg/kg) was 661 ± 304 ng/mL. The AUC(0-t) ([21]; po, 15 mg/kg) was 12100 ng·h/mL, the Cmax ([21]; po, 15 mg/kg) was 5680 ± 2470 ng/mL and the AUC(0-t) ([21]; po, 75 mg/kg) was 77700 ng·h/mL. For the same compound, the Cmax ([21]; po, 75 mg/kg) was 17200 ng/mL, the EC50 [22] was > 10 µM and the IC50 [23] was > 10 µM. For the same compound, the inhibition at 40 µM [24] was < 50%, the EC50 [25] was > 12 µM and the “Activity at Maximum Concentration (%)” value ([25]; 12,000 nM) was −12.1%. For the same compound, the EC50 [26] was > 0.001 µM, the EC50 [27] was > 12 µM and the “Activity at Maximum Concentration (%)” value ([27]; 12,000 nM) was −0.06%. The EC50 ([28]; read-out: EC50 values range) was 0.01 to 0.063 nM, the EC50 ([28]; read-out: average EC50 value range) was 0.012 to 0.063 nM and the IC50 [29] was > 10 µM. For the same compound, the CC50 [30] was > 10 µM, the IC50 [31] was > 10 µM and the mortality [32] was 40%. For the same compound, the IC50 [33] was > 10 µM.
